Assay results published in ChEMBL document CHEMBL1201862, “PubChem BioAssay data set” (2004).
Several values for one entry are separate records, joined by “and”; a condition that tells them apart may be missing. Equal values may be shown once. Activity calls are given as the source filed them. For most assays here, no stated cut-off is given here; in the data, actives have a measured IC50 and inactives only a lower limit.

Assays:
[1] = biological target: Cytochrome P450 3A4 (Homo sapiens, UniProt P08684);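 further: CYP3A4 tested as one member of a cytochrome P450 panel screen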
Cytochrome P450 3A4, sequence (P08684 whole entry): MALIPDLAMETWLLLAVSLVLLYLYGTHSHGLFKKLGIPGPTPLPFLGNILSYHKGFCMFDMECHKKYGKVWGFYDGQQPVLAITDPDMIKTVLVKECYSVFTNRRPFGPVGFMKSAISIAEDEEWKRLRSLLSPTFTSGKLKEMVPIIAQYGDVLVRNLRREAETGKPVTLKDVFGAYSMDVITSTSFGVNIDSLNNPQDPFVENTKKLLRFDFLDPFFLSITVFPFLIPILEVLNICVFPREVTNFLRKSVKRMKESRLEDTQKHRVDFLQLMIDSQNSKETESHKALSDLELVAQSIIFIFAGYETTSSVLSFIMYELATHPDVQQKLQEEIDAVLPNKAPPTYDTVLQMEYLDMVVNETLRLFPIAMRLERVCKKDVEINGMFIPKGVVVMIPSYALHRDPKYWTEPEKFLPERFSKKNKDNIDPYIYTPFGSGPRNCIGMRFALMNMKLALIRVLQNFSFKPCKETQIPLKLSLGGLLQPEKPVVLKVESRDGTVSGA

[2] = biological target: T1, Tyrosine-protein phosphatase non-receptor type 22 (Homo sapiens, UniProt Q9Y2R2); type: functional
T1 sequence (Q9Y2R2 whole entry): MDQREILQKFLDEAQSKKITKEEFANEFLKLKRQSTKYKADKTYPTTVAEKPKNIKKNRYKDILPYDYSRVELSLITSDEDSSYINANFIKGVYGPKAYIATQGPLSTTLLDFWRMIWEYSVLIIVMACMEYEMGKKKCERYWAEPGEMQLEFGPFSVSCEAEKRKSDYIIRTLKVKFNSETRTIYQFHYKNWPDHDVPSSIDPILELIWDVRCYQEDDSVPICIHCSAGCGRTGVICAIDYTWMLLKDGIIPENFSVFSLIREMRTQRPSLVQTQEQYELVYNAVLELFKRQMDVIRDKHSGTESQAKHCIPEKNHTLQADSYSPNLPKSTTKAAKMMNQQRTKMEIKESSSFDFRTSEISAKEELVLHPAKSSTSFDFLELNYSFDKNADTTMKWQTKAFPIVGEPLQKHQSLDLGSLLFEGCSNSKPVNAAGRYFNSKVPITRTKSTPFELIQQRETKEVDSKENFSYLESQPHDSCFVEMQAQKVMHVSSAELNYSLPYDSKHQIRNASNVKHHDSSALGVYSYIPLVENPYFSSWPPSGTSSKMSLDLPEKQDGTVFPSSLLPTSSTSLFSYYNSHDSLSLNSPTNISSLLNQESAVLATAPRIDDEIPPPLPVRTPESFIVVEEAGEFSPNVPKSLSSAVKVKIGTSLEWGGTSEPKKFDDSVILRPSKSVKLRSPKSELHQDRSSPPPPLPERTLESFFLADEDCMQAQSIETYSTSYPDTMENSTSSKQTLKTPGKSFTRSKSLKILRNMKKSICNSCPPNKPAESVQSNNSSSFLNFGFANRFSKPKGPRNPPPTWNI

[3] = biological target: T2, Leucine aminopeptidase (Plasmodium falciparum 3D7, UniProt Q8IL11); assay: P. falciparum M17LAP inhibitors, primary screen, biochemical, fluorogenic H-Leu-NHMec substrate, 1536-well (AID 1619); type: functional
T2 sequence (Q8IL11 whole entry): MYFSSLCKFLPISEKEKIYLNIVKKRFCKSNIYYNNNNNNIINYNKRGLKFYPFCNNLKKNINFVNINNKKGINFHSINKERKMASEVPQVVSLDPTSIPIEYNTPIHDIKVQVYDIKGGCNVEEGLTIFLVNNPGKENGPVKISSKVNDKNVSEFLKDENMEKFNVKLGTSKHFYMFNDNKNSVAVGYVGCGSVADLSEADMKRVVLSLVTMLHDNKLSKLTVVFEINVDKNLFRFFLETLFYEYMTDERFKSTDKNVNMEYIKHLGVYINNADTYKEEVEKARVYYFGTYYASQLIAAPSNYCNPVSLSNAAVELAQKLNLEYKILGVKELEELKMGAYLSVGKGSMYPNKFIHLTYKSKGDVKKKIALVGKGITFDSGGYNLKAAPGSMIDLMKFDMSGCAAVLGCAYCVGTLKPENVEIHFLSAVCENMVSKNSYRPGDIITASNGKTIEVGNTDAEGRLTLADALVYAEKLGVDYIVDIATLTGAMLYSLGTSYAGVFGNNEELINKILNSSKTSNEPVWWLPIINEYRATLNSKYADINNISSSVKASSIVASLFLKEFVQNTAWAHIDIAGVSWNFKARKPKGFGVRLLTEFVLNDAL

[4] = biological target: T3, Tyrosine-protein phosphatase non-receptor type 7 (Homo sapiens, UniProt P35236); type: functional
T3 sequence (P35236 whole entry): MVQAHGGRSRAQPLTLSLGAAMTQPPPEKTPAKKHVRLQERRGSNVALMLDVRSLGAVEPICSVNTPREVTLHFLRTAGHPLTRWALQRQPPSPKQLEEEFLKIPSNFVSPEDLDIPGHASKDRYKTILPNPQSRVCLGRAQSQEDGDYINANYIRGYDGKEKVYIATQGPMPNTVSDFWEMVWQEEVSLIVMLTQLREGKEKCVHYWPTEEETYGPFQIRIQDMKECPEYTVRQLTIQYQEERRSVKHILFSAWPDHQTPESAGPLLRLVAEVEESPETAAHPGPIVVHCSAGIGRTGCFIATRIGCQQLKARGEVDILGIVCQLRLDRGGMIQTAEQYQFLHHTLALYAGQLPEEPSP

[5] = biological target: T1, Tyrosine-protein phosphatase non-receptor type 22; type: functional; remark: listed apart in the source
[6] = biological target: T4, Streptokinase A (Streptococcus pyogenes serotype M1, UniProt P10520); assay: viability-normalized secreted streptokinase activity reduction – plasminogen activation absorbance, OD405, dose response (AID 1914); type: functional, Streptococcus pyogenes M1 GAS;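 further: secreted streptokinase activity via plasminogen activation per viability signal from cell pellet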
T4 sequence (P10520 whole entry): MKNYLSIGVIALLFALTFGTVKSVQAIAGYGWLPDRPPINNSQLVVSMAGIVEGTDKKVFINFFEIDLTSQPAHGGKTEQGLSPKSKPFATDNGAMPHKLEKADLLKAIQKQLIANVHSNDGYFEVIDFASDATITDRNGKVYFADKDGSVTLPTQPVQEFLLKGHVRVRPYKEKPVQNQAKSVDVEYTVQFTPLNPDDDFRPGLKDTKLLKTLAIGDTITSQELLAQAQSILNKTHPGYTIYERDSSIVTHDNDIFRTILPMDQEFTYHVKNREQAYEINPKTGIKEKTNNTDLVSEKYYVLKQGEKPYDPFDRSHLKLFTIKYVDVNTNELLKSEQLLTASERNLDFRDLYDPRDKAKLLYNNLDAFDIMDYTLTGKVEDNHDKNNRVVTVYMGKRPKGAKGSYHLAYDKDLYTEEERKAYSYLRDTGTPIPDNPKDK

[7] = tested on: Streptococcus sp. 'group A'; assay: Streptococcus pyogenes SK(-)GAS viability under kanamycin – luminescence, BacTiterGlo, confirmation, counter-screen for streptokinase expression inhibitor project, dose response (AID 1900); type: functional, organism-based
[8] = biological target: T5, Nucleotide-binding oligomerization domain-containing protein 1 (Homo sapiens, UniProt Q9Y239); assay: blockers of NOD1 pathway activity – revised, SAR follow-up (AID 2333); type: functional
T5 sequence (Q9Y239 whole entry): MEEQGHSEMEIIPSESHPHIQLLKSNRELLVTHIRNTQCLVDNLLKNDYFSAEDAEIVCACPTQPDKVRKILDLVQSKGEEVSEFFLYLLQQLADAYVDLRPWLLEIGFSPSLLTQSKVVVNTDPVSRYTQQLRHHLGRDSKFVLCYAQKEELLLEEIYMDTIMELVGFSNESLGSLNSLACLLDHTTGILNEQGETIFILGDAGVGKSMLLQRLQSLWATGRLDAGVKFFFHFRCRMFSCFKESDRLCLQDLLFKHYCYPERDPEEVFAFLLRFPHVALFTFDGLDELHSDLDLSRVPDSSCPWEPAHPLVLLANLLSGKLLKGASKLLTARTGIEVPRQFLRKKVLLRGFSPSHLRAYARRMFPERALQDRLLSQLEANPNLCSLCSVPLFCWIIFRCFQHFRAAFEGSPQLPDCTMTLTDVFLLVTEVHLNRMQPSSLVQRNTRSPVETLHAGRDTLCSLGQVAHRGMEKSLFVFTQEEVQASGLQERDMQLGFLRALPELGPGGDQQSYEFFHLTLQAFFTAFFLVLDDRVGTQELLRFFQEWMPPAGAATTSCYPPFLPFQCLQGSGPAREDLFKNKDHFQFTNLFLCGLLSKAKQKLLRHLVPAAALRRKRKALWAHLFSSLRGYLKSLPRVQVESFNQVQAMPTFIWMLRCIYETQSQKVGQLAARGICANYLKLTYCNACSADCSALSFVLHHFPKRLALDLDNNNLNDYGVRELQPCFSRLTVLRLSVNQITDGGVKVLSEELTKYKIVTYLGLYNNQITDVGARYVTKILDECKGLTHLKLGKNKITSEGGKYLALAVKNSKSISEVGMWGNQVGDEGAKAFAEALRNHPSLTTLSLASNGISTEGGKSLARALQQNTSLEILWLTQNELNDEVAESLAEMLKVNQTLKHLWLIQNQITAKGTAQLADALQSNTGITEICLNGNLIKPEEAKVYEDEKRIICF

[9] = tested on: HEK293; assay: inhibition of NOD1-driven NF-kB reporter – cell-based, luminescence, uHTS, primary screen (AID 1578); type: functional; settings: Homo sapiens
[10] = tested on: HEK293; assay: cells; type: functional, cell-based; settings: Homo sapiens
[11] = tested on: HEK293; assay: cells; settings: Homo sapiens
[12] = tested on: HEK293; assay: NOD2 signaling inhibitors in MDP-stimulated cells, cell-based, uHTS, luminescence (AID 2001); type: functional; settings: Homo sapiens
[13] = tested on: Streptococcus; assay: GAS UMAA2166 growth inhibition – luminescence, BacTiterGlo, counter-screen for streptokinase expression inhibitor project, dose response (AID 1915); type: functional, organism-based;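 further: potency for reduction of bacterial viability or growth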
[14] = tested on: HEK293; assay: cells; type: functional, cell-based; settings: Homo sapiens; remark: listed apart in the source
[15] = biological target: Tumor necrosis factor (Homo sapiens, UniProt P01375); assay: analog potency on TNFa NF-kB signaling – cell-based, revised, SAR follow-up (AID 2337); type: functional
Tumor necrosis factor, sequence (P01375 whole entry): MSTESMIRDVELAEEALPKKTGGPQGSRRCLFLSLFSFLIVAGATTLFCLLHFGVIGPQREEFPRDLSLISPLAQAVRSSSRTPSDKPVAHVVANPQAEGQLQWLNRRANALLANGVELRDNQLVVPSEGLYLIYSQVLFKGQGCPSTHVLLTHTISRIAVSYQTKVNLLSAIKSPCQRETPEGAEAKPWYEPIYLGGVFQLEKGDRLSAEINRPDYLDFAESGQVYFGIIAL

[16] = biological target: T6, Phosphomannomutase 2 (Homo sapiens, UniProt O15305); assay: Counter screen SAR assay for PMM2 inhibitors via a fluorescence intensity assay. [Related pubchem assays (depositor defined):AID1545, AID1574]
T6 sequence (O15305 whole entry): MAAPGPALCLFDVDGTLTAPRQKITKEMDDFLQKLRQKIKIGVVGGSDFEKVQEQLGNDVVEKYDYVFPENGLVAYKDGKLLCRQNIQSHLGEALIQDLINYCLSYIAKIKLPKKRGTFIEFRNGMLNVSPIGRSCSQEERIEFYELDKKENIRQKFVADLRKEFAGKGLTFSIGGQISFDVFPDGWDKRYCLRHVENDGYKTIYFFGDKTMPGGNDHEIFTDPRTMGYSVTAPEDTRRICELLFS

[17] = biological target: T7, Mannose-6-phosphate isomerase (Homo sapiens, UniProt P34949); assay: phosphomannose isomerase inhibition – biochemical, fluorescence intensity, confirmation (AID 1535)
T7 sequence (P34949 whole entry): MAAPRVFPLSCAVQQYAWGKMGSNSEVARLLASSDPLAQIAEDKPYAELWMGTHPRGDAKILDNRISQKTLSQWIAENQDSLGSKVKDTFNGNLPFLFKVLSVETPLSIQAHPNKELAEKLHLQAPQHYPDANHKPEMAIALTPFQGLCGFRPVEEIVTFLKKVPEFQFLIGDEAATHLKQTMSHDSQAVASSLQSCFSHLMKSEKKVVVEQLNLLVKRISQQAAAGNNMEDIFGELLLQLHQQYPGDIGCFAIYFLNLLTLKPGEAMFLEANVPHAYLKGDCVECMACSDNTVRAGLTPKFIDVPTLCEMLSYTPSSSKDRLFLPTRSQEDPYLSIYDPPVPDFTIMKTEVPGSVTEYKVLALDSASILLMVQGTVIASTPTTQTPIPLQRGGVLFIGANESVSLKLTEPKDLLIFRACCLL

CCOC(=O)N1CCN(c2nc(-c3cccs3)cc(C(F)(F)F)n2)CC1
AC50 [1]: inconclusive

O=C(O)C1CCCCC1C(=O)Nc1ccc(F)c(F)c1 (configuration not stated)
IC50 [2]: > 79.4 µM (inactive)
IC50 [3]: 37.8 µM (active)
IC50 [4]: > 79.4 µM (inactive)
IC50 [5]: > 79.4 µM (inactive)

O=C(CNC(=O)c1ccc(Cl)cc1)NCC(F)(F)F
IC50 [2]: > 79.4 µM (inactive)
IC50 [4]: > 79.4 µM (inactive)
IC50 [5]: > 79.4 µM (inactive)

CCSc1nnc(NC(=O)C2CCCCC2C(=O)O)s1 (configuration not stated)
IC50 [2]: > 79.4 µM (inactive)
IC50 [4]: > 79.4 µM (inactive)
IC50 [5]: > 79.4 µM (inactive)

Cc1ccccc1/C=C1\Sc2ccc(C(=O)N3CCN(c4ccccn4)CC3)cc2N(C)C1=O
EC50 [6]: > 150 µM (not active)
EC50 [7]: 4.49 µM (active)
IC50 [8]: 4.28 µM (active)
EC50 [9]: 8.18 µM (active)
IC50 [10]: 5.97 µM (active)
IC50 [11]: 10.8 µM (active)
IC50 [12]: 6.78 µM (active)
EC50 [13]: 16.6 µM (active)
IC50 [14]: 7.21 µM (active)
IC50 [15]: 6.22 µM (active)

NC(=O)CN1CCOCCOCCOCCOCCOCC1
AC50 [1]: inconclusive

COCC(=O)N1CCC2(CC1)CCN(c1ccc(-c3ccccc3)cc1)CC2
AC50 [1]: inconclusive

Clc1nss/c1=N\c1nccs1
IC50 [16]: > 100 µM (inactive)
IC50 [17]: 32.9 µM (active) and 4.34 µM (active)

O=c1c2ccccc2sn1-c1nc2ccc(SC(F)F)cc2s1
IC50 [16]: > 100 µM (inactive)
IC50 [17]: > 50 µM (inactive)

O=c1c2ccccc2sn1-c1ncc(Br)s1
IC50 [16]: > 100 µM (inactive)
IC50 [17]: > 50 µM (inactive)

COc1ccc(C(=O)Nc2sc3c(c2C(=O)O)CC(C)(C)OC3)cc1OC
IC50 [8]: 15.1 µM (active)
IC50 [11]: > 20 µM (inactive)
IC50 [15]: > 20 µM (inactive)
